# Data from ChEMBL document CHEMBL2417420, “Autotaxin inhibition: development and application of computational tools to identify site-selective lead compounds” (Bioorg Med Chem, 2013).
# Molecular target: Autotaxin (Homo sapiens, UniProt Q13822)
# Assay: Inhibition of C-terminal FLAG-tagged human recombinant autotaxin using synthetic substrate FS-3 at 10 uM measured every 2 mins by FRET assay relative to control
row,Compound,inhibition [%]
1,COc1ccc(-c2cc(C(=O)NC(C)(C)C(=O)NCCCOC(C)C)c3ccccc3n2)cc1C,20
2,O=C(COc1cc(Cl)c(Cl)cc1Cl)Nc1ccc(CNC(=O)c2cnc3cc(C(F)(F)F)ccc3c2O)cc1,10
3,COc1cc(C(=O)NCCNc2nc3cc4c(cc3cc2C#N)OCO4)cc(OC)c1OC,10
4,N#CC1=C(SCC(=O)N(c2ccccc2)c2ccccc2)NC(=O)CC1c1cc(Br)c(O)c(Br)c1 (stereo not drawn),10
5,COc1ccc(/C=c2/sc3n(c2=O)NC2(c4ccccc4)N(C)C(=O)N(C)C2(c2ccccc2)N=3)cc1O (stereo not drawn),10
6,CCn1c(CN2CCc3ccccc3C2)nc2cc(C(=O)NCC(O)CO)ccc21 (stereo not drawn),20
7,COc1ccc(C2=NN(C(=O)CSc3nnc(CNC(=O)c4ccco4)n3-c3cc(C)ccc3C)C(c3ccc(OC)cc3)C2)cc1 (stereo not drawn),30
8,Cc1cc2cc(C#N)c(SCC(=O)Nc3ccc(N(C)C)cc3)nc2cc1C,0
9,CC(O)C(NC(=O)c1ccc(N2CCN(C(=O)Cc3ccc(O)cc3)CC2)nc1)C(N)=O (stereo not drawn),10
10,CCOC(=O)c1sc(NC(=O)c2ccc(Oc3ccc(C(=O)Nc4sc(C(=O)OCC)c(C)c4C(=O)OCC)cc3)cc2)c(C(=O)OCC)c1C,10
11,CC(C)Cc1ccc(C(C)C(=O)N2CCN(c3ncccc3C(=O)NC(C(N)=O)C(C)O)CC2C)cc1 (stereo not drawn),30
12,CC(O)C(NC(=O)c1cccnc1N1CCN(C(=O)CCC(=O)c2ccccc2)CC1)C(N)=O (stereo not drawn),10
13,Cc1ccc(C(=O)Nc2ccccc2C(=O)O)cc1S(=O)(=O)Nc1ccc(Br)cc1,0
14,CCCOC(=O)c1ccc(/N=C/c2cccc(OC)c2O)cc1,10
15,COc1cc(/C=c2/sc3n(c2=O)NC2(c4ccccc4)N(C)C(=O)N(C)C2(c2ccccc2)N=3)ccc1O (stereo not drawn),20
16,Cc1[nH]c2ccccc2c1CC(=O)N1CCN(C(=O)c2ccccc2C(=O)c2ccc(Cl)cc2)CC1,30
17,O=C(O)CN1C(=O)/C(=C/c2ccc(-c3ccc(Cl)cc3)o2)S/C1=N\c1ccccc1,20
18,COc1ccc(-c2cc(C(F)(F)F)n3nc(C(=O)Nc4cc(Sc5ccc(Br)cc5)cc([N+](=O)[O-])c4)c(Cl)c3n2)cc1OC,10

row,Compound,inhibition [%]
1,O=C(O)c1cc(-c2ccc(/C=C3/S/C(=N\Cc4ccccc4)N(Cc4ccccc4)C3=O)o2)ccc1Cl,20
2,CCCCCCOc1ccc(C(=O)COC(=O)c2ccccc2-c2ccccc2C(=O)COC(=O)c2ccc(OCCCCCC)cc2)cc1,0
3,COc1cc(/C=C2/SC(=S)N(Cc3ccccc3)C2=O)ccc1OC(=O)c1cccs1,0
4,COc1ccc(-c2cc(C(=O)NC(C)(C)C(=O)NCCC3CCCN3C)c3ccccc3n2)cc1 (stereo not drawn),10
5,Cc1cc(C)cc(CC(=O)N2CCN(c3ccc(C(=O)NC(C(N)=O)C(C)O)cn3)CC2)c1 (stereo not drawn),20
6,O=C(Cn1c(=O)sc2ccccc21)OCc1cccc(Oc2ccccc2)c1,0
7,Cc1ccc2[nH]c3nc(SCC(=O)NCc4ccc5c(c4)OCO5)nnc3c2c1,10
8,O=C(NC(S)Nc1ccc2oc(-c3ccc(-c4ccccc4)cc3)nc2c1)c1ccc([N+](=O)[O-])cc1 (stereo not drawn),10
9,COc1ccc(OC)c(NC(=S)N2CCn3cccc3C2c2ccc(OC)c(OC)c2)c1 (stereo not drawn),30
10,COc1ccc(-c2nc3cc(C(=O)NCCOCCO)ccc3n2CCc2ccc(OC)c(OC)c2)c(OC)c1,10
11,CC1CCC(C(C)C)C(OCc2nc3cc(C(=O)NCCOCCO)ccc3n2Cc2ccco2)C1 (stereo not drawn),10
12,O=C(O)CN1C(=O)/C(=C\c2ccc(OCc3cccc4ccccc34)cc2)SC1=S,30
13,CCCCOc1ccc(-c2nc3cc(C(=O)NCc4ccc(C(F)(F)F)cc4)ccc3n2CCc2ccc(OC)c(OC)c2)cc1,30
14,COc1cccc(CC(=O)NCCNc2nc3cc4c(cc3cc2C#N)OCO4)c1,20
15,CCC(COc1ccc2oc3ccccc3c2c1)NCCC(=O)N(CC(N)=O)Cc1ccc(C)cc1 (stereo not drawn),10
16,COc1ccccc1C(COc1ccccc1C)NCCC(=O)N(CC(N)=O)Cc1ccc(C)cc1 (stereo not drawn),20
17,CCN(C(=O)c1ccc(/C=C2\S/C(=N\c3ccccc3)N([C@H](C)C(=O)O)C2=O)cc1)c1ccccc1,20
18,CCN(CCCCOC(=O)c1ccc(OC)c(OC)c1)C(C)Cc1ccc(OC)cc1 (stereo not drawn),10

# Now from value to compound:
row,inhibition [%],Compound
1,10,O=C1/C(=C\c2cccc(OCc3ccccc3F)c2)SC(=S)N1Cc1ccccc1
2,20,CCOC(=O)C(=O)NCC1CCC(c2cc3n(n2)CCN3S(=O)(=O)c2cccc(Cl)c2)CC1 (stereo not drawn)
3,10,COc1ccc(CNC(=O)N2CC(O)C(N3CCN(c4ccccc4F)CC3)C2)cc1 (stereo not drawn)
4,20,CC(C)Cc1ccc(C(C)C(=O)N2CCN(c3ncccc3C(=O)NC(C(N)=O)C(C)O)CC2)cc1 (stereo not drawn)
5,30,CCCCOc1ccc(-c2nc3cc(C(=O)NCc4cc(F)ccc4F)ccc3n2CCc2ccc(OC)c(OC)c2)cc1
6,20,CC1CCC(C(C)C)C(OCC(=O)N2CCCN(c3ncccc3C(=O)N3CCCC3C(N)=O)CC2)C1 (stereo not drawn)
7,30,COc1ccccc1/C=C1\SC(=O)N(CCC(=O)N2c3ccccc3Sc3ccc(Cl)cc32)C1=O
8,30,CC(=O)C1=C(C)NC(SCC(=O)Nc2ccc(Br)cc2)=C(C#N)C1c1ccc(O)cc1 (stereo not drawn)
9,10,CC(CNC(=O)c1cc(-c2ccccc2)nc2ccccc12)C(=O)NCCNc1ccccc1 (stereo not drawn)
10,30,COc1cc(C2C(C#N)=C(SCC(=O)Nc3cccc4ccccc34)NC3=C2C(=O)CCC3)ccc1O (stereo not drawn)
11,30,O=C(NCC(O)CO)c1ccc2c(c1)nc(COCc1ccccc1)n2Cc1ccco1 (stereo not drawn)
12,10,CCCCOc1ccc(-c2nc3cc(C(=O)NCCOCCO)ccc3n2Cc2ccco2)cc1
13,10,COCCCn1c(CN2CCN(c3ccccc3F)CC2)nc2cc(C(=O)NCC(O)CO)ccc21 (stereo not drawn)
14,0,COc1ccc(-c2cc(C(=O)NC(C)(C)C(=O)NCCN(C(C)C)C(C)C)c3ccccc3n2)cc1
15,10,CC(=O)N1c2ccc(NC(=O)c3ccc(Cl)cc3Cl)cc2C2(c3ccccc3)N(C(C)=O)c3ccc(NC(=O)c4ccc(Cl)cc4Cl)cc3C12c1ccccc1 (stereo not drawn)
16,30,CCCCS(=O)(=O)N1CCn2nc(C3CCC(CNS(=O)(=O)c4ccccc4C)CC3)cc21 (stereo not drawn)
17,10,Cc1[nH]n(-c2cc(Cl)c(S(=O)(=O)O)cc2Cl)c(=O)c1/N=N/c1cc(Nc2nc(Cl)nc(Nc3cccc(S(=O)(=O)O)c3)n2)ccc1S(=O)(=O)O
18,10,CCOc1cc(/C=C2/NC(=O)N(Cc3cccc(F)c3)C2=O)cc(Cl)c1OCC
19,10,COc1ccc(CNC(=O)C(C)(C)NC(=O)c2cc(-c3ccoc3)nc3ccccc23)c(OC)c1
20,10,CC(CNC(=O)CCCn1ncn2c(cc3occc32)c1=O)c1ccccc1 (stereo not drawn)
21,30,O=C(NCC(O)CO)c1ccc2c(c1)nc(CN1CCC(N3CCCC3)CC1)n2CCc1ccccc1 (stereo not drawn)
22,0,CCCCCCOc1ccc(/C=N/c2ccc(/N=C/c3ccc(OCCCCCC)cc3)c(Cl)c2)cc1
23,10,COc1cc(/C=N/NC(=O)c2cc(-c3ccc(OC)c(OC)c3)n[nH]2)ccc1O
24,30,CCc1cc2c(cc3c(=O)n(CCCC(=O)NCc4ccc(Cl)cc4)ncn32)s1
25,30,COc1cc(CCNC(=O)c2ccc3c(c2)nc(-c2cccc(C)c2)n3CCc2ccc(OC)c(OC)c2)cc(OC)c1
26,20,CC(CC(=O)NCCc1ccncc1)NC(=O)c1cc(-c2ccccc2)nc2ccccc12 (stereo not drawn)

row,inhibition [%],Compound
1,0,CCc1nc2ccc(C(=O)NCCc3c[nH]c4ccccc34)cn2c1N(C)C(=O)C1CCCCC1
2,10,Cc1ccc(-c2ccc(-c3nnc(CCCC(=O)NC(CO)CO)o3)cc2)cc1
3,20,O=C(N/N=C/c1cc(Br)c(O)c(O)c1Br)/C(=C\c1ccc([N+](=O)[O-])cc1)NC(=O)c1ccccc1
4,10,CCCCCC(C)(C)c1ccc(Oc2ccc(NC(=O)c3cc(/N=N/c4cccc(OC)c4)c4ccccc4c3O)cc2)cc1
5,30,CCN(C(=O)c1cccc(/C=C2\SC(=S)N([C@H](Cc3ccccc3)C(=O)O)C2=O)c1)c1ccccc1
6,30,CCOc1cc(CC2SC(N3CCN(C4=NC(=O)C(Cc5ccc(O)c(OCC)c5)S4)CC3)=NC2=O)ccc1O (stereo not drawn)
7,20,COc1ccc(-c2cc(C(=O)NCCC(=O)NCc3ccccc3OC)c3ccccc3n2)cc1
8,0,CCc1nc2ccc(C(=O)N3CCN(C(C)=O)CC3)cn2c1N(C)C(=O)COc1ccccc1
9,30,COc1cc(OC)cc(-c2nc3cc(C(=O)NCCc4ccccc4)ccc3n2CCc2ccc(OC)c(OC)c2)c1
10,20,CC(c1cc2ccccc2o1)N1CCN(C(=O)CCSc2ccc3ccccc3c2)CC1 (stereo not drawn)
11,10,COc1cccc(CNS(=O)(=O)c2ccc3c(c2)NC(=O)C(C)N3C(=O)CN2CCN(c3ccccn3)CC2)c1OC (stereo not drawn)
12,10,COc1ccc(-c2cc(C(=O)NC(C(=O)NCCCCCCO)C(C)C)c3ccccc3n2)cc1C (stereo not drawn)
13,10,COc1ccc(-c2cc(C(=O)NCC(C)C(=O)NCCNc3ccccc3)c3ccccc3n2)cc1 (stereo not drawn)
14,20,COc1ccc(OC)c(C(=O)NC(CC(=O)NCCc2c[nH]c3ccccc23)c2ccccc2)c1 (stereo not drawn)
15,0,COc1cc(/C=C2/SC(=S)N(C3CCCCC3)C2=O)ccc1OCc1ccccc1Cl
16,20,COc1ccc(C2CC(=O)NC(SCC(=O)Nc3ccc(I)cc3)=C2C#N)cc1OC (stereo not drawn)
17,30,COc1cc(C2OCC3(CCCC4(COC(c5ccc(O)c(OC)c5)OC4)C3=O)CO2)ccc1O (stereo not drawn)
18,10,COc1cccc(Cc2nc3cc(C(=O)NCC(O)CO)ccc3n2CCc2ccccc2F)c1 (stereo not drawn)
19,20,CCCCCOc1ccc(/N=C2\C=C(O)C(=O)c3ccccc32)cc1
20,30,Cc1ccccc1C(=O)NCC1CCC(c2cc3n(n2)CCN3C(=O)COc2ccccc2)CC1 (stereo not drawn)
21,20,COc1cccc(-c2ccc(C(=O)N(CCN)Cc3ccc(NC(C)=O)cc3)cn2)c1
22,0,CC(=O)N1CCN(C(=O)c2ccc3nc(C)c(N(C)C(=O)CCc4ccccc4)n3c2)CC1
23,10,NC(=O)C(Cc1ccc(O)cc1)NC(=O)c1ccc(N2CCN(C(=O)C(N)Cc3ccccc3)CC2)nc1 (stereo not drawn)
24,10,O=C1c2ccccc2-c2ccc(S(=O)(=O)Nc3ccc(S(=O)(=O)Nc4nccs4)cc3)cc21
25,10,COc1ccc(CCn2c(COc3ccccc3)nc3cc(C(=O)NCC(O)CO)ccc32)cc1OC (stereo not drawn)
26,10,O=C1/C(=C\c2cc(Cc3ccccc3)ccc2O)SC(=S)N1Cc1ccccc1
